# Source: PubChem BioAssay AID248 (DTP/NCI, 2004)
# Toxic doses and inconclusive results are not listed.
# Test system: L1210 leukemia ip in BDF1 mice, survival T/C
# Test: NCI In Vivo Anticancer Drug Screen. Data for tumor model L1210 Leukemia (intraperitoneal) in B6D2F1 (BDF1) mice
# Details: higher = longer survival
# Procedure, shortened: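 Transplanted-tumor mice were given test agent; controls received vehicle only. Survival readings from the two groups were divided (treated over control).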
# [1] = endpoint: mean survival time, dose: 100.0 mg/kg/injection, schedule: Q01DX009 (ip), vehicle: Klucel (hydroxypropylcellulose) (HPC)
# [2] = endpoint: mean survival time, dose: 100.0 mg/kg/injection, schedule: Q04DX003 (ip), vehicle: Klucel (hydroxypropylcellulose) (HPC)
# [3] = endpoint: mean survival time, dose: 200.0 mg/kg/injection, schedule: Q01DX009 (ip), vehicle: Klucel (hydroxypropylcellulose) (HPC)
# [4] = endpoint: mean survival time, dose: 200.0 mg/kg/injection, schedule: Q04DX003 (ip), vehicle: Klucel (hydroxypropylcellulose) (HPC)
# [5] = endpoint: mean survival time, dose: 400.0 mg/kg/injection, schedule: Q04DX003 (ip), vehicle: Klucel (hydroxypropylcellulose) (HPC)
# [6] = endpoint: mean survival time, dose: 100.0 mg/kg/injection, schedule: Q01DX001 (ip), vehicle: carboxymethylcellulose (CMC)
# [7] = endpoint: mean survival time, dose: 200.0 mg/kg/injection, schedule: Q01DX001 (ip), vehicle: carboxymethylcellulose (CMC)
# [8] = endpoint: mean survival time, dose: 400.0 mg/kg/injection, schedule: Q01DX001 (ip), vehicle: carboxymethylcellulose (CMC)
# [9] = endpoint: mean survival time, dose: 400.0 mg/kg/injection, schedule: Q01DX009 (ip), vehicle: Klucel (hydroxypropylcellulose) (HPC)
# [10] = endpoint: mean survival time, dose: 100.0 mg/kg/injection, schedule: Q01DX001 (ip), vehicle: saline with Tween-80
# [11] = endpoint: mean survival time, dose: 200.0 mg/kg/injection, schedule: Q01DX001 (ip), vehicle: saline with Tween-80
# [12] = endpoint: mean survival time, dose: 400.0 mg/kg/injection, schedule: Q01DX001 (ip), vehicle: saline with Tween-80
# [13] = endpoint: mean survival time, dose: 200.0 mg/kg/injection, schedule: Q01DX009 (ip), vehicle: saline
# [14] = endpoint: mean survival time, dose: 100.0 mg/kg/injection, schedule: Q01DX001 (ip), vehicle: saline
# [15] = endpoint: mean survival time, dose: 400.0 mg/kg/injection, schedule: Q01DX001 (ip), vehicle: saline
# [16] = endpoint: mean survival time, dose: 200.0 mg/kg/injection, schedule: Q01DX001 (ip), vehicle: saline
# [17] = endpoint: mean survival time, dose: 75.0 mg/kg/injection, schedule: Q01DX001 (ip), vehicle: saline
# [18] = endpoint: mean survival time, dose: 150.0 mg/kg/injection, schedule: Q01DX001 (ip), vehicle: saline
smiles,measurement,setting,value
CC(C)c1cc(O)ccc1N(C)C (tested in a mixture with another compound),T/C,"endpoint: mean survival time, dose: 3.2 micrograms/kg/injection, schedule: Q01DX009 (ip), vehicle: saline",97 % of control
same,T/C,"endpoint: mean survival time, dose: 8.0 micrograms/kg/injection, schedule: Q01DX009 (ip), vehicle: saline",90 % of control
same,T/C,"endpoint: mean survival time, dose: 16.0 micrograms/kg/injection, schedule: Q01DX009 (ip), vehicle: saline",87 % of control
same,T/C,"endpoint: mean survival time, dose: 32.0 micrograms/kg/injection, schedule: Q01DX009 (ip), vehicle: saline",90 % of control
CCCCC(CC)CCC(=O)CC(C)C (centres undefined),T/C,[1],91 % of control
same,T/C,[2],108 % of control
same,T/C,[3],102 % of control
same,T/C,[4],98 % of control
same,T/C,[5],98 % of control
c1ccc2c(c1)C(=NN=C1c3ccccc3-c3ccccc31)c1ccccc1-2,T/C,[6],97 % of control
same,T/C,[1],93 % of control
same,T/C,[7],94 % of control
same,T/C,[3],104 % of control
same,T/C,[8],94 % of control
same,T/C,[9],96 % of control
c1cnc2c(c1)Oc1cccnc1N2,T/C,"endpoint: mean survival time, dose: 50.0 mg/kg/injection, schedule: Q01DX001 (ip), vehicle: Klucel (hydroxypropylcellulose) (HPC)",98 % of control
same,T/C,"endpoint: mean survival time, dose: 100.0 mg/kg/injection, schedule: Q01DX001 (ip), vehicle: Klucel (hydroxypropylcellulose) (HPC)",92 % of control
same,T/C,"endpoint: mean survival time, dose: 200.0 mg/kg/injection, schedule: Q01DX001 (ip), vehicle: Klucel (hydroxypropylcellulose) (HPC)",90 % of control
CC(=O)[O][Hg][CH]1Cc2ccccc2O1 (centres undefined),T/C,"endpoint: mean survival time, dose: 15.0 mg/kg/injection, schedule: Q01DX001 (ip), vehicle: carboxymethylcellulose (CMC)",94 % of control
Cc1ccc2nc(-c3ccccc3N)[nH]c2c1,T/C,"endpoint: mean survival time, dose: 100.0 mg/kg/injection, schedule: Q01DX009 (ip), vehicle: saline with Tween-80",97 % of control
same,T/C,"endpoint: mean survival time, dose: 200.0 mg/kg/injection, schedule: Q01DX009 (ip), vehicle: saline with Tween-80",92 % of control
same,T/C,"endpoint: mean survival time, dose: 400.0 mg/kg/injection, schedule: Q01DX009 (ip), vehicle: saline with Tween-80",92 % of control
O=C1C=C(c2ccccc2)C(Cl)(c2ccccc2)C1 (centres undefined),T/C,[10],104 % of control
same,T/C,[11],96 % of control
same,T/C,[12],89 % of control
CS(=O)(=O)Oc1ccc2cc(Br)ccc2c1,T/C,[6],102 % of control
same,T/C,[7],100 % of control
same,T/C,[8],107 % of control
Brc1ccc2c(ccn2Cc2ccccc2)c1,T/C,"endpoint: mean survival time, dose: 100.0 mg/kg/injection, schedule: Q04DX003 (sc), vehicle: olive oil, sesame oil, peanut oil",109 % of control
same,T/C,"endpoint: mean survival time, dose: 200.0 mg/kg/injection, schedule: Q04DX003 (sc), vehicle: olive oil, sesame oil, peanut oil",106 % of control
same,T/C,"endpoint: mean survival time, dose: 400.0 mg/kg/injection, schedule: Q04DX003 (sc), vehicle: olive oil, sesame oil, peanut oil",104 % of control
O=c1n[n+]([O-])ccn1C1OC(CO)C(O)C1O (centres undefined),T/C,"endpoint: mean survival time, dose: 100.0 mg/kg/injection, schedule: Q01DX005 (ip), vehicle: saline",111 % of control
same,T/C,"endpoint: mean survival time, dose: 200.0 mg/kg/injection, schedule: Q01DX005 (ip), vehicle: saline",111 % of control
same,T/C,[13],121 % of control
same,T/C,"endpoint: median survival time, dose: 200.0 mg/kg/injection, schedule: Q01DX009 (ip), vehicle: saline",176 % of control
same,T/C,"endpoint: median survival time, dose: 250.0 mg/kg/injection, schedule: Q01DX009 (ip), vehicle: saline",280 % of control
same,T/C,"endpoint: median survival time, dose: 300.0 mg/kg/injection, schedule: Q01DX009 (ip), vehicle: saline",352 % of control
same,T/C,"endpoint: median survival time, dose: 350.0 mg/kg/injection, schedule: Q01DX009 (ip), vehicle: saline",97 % of control
same,T/C,"endpoint: median survival time, dose: 400.0 mg/kg/injection, schedule: Q01DX009 (ip), vehicle: saline",97 % of control
same,T/C,"endpoint: median survival time, dose: 450.0 mg/kg/injection, schedule: Q01DX009 (ip), vehicle: saline",152 % of control
COc1c(OCC=C(C)C)cc2c(c1O)c(=O)c1ccccc1n2C,T/C,[6],100 % of control
same,T/C,[7],93 % of control
same,T/C,[8],98 % of control
CCOC(=O)c1ccc(NC(=O)CN2CCOCC2)cc1,T/C,"endpoint: mean survival time, dose: 222.0 mg/kg/injection, schedule: Q01DX Z (ip), vehicle: saline",102 % of control
same,T/C,"endpoint: mean survival time, dose: 333.0 mg/kg/injection, schedule: Q01DX Z (ip), vehicle: saline",98 % of control
same,T/C,"endpoint: mean survival time, dose: 500.0 mg/kg/injection, schedule: Q01DX Z (ip), vehicle: saline",90 % of control
CC1CN1P(=S)(N1CCCCC1)N1CC1C (centres undefined),T/C,"endpoint: mean survival time, dose: 50.0 mg/kg/injection, schedule: Q01DX001 (ip), vehicle: carboxymethylcellulose (CMC)",102 % of control
same,T/C,[6],91 % of control
same,T/C,[7],91 % of control
same,T/C,[8],105 % of control
same,T/C,"endpoint: mean survival time, dose: 600.0 mg/kg/injection, schedule: Q01DX001 (ip), vehicle: carboxymethylcellulose (CMC)",103 % of control
same,T/C,"endpoint: mean survival time, dose: 800.0 mg/kg/injection, schedule: Q01DX001 (ip), vehicle: carboxymethylcellulose (CMC)",101 % of control
COC(=O)C1CC2OC2C(C)C1C(=O)OC (centres undefined),T/C,[1],95 % of control
same,T/C,[3],103 % of control
same,T/C,[9],105 % of control
CCCCCCCCCC(CC)(CCCCCCC)CCCCCCCC (centres undefined),T/C,[10],103 % of control
same,T/C,[11],99 % of control
same,T/C,[12],103 % of control
Cc1cccc2c(N=Nc3ccccc3[N+](=O)[O-])c(O)[nH]c12,T/C,[14],101 % of control
same,T/C,[15],97 % of control
O=C(CCCCOc1ccc([N+](=O)[O-])cc1Cl)Nc1ccc(S(=O)(=O)F)cc1,T/C,[2],97 % of control
same,T/C,[4],90 % of control
same,T/C,[5],90 % of control
O=C(COc1ccc([N+](=O)[O-])cc1)Nc1ccc(S(=O)(=O)F)cc1,T/C,[14],103 % of control
same,T/C,[16],107 % of control
same,T/C,[15],103 % of control
Cc1ccc(C(=O)OCC(=O)c2ccc(-c3ccccc3)cc2)cc1,T/C,"endpoint: mean survival time, dose: 100.0 mg/kg/injection, schedule: Q01DX001 (ip), vehicle: other",89 % of control
same,T/C,"endpoint: mean survival time, dose: 200.0 mg/kg/injection, schedule: Q01DX001 (ip), vehicle: other",90 % of control
O=P1(c2ccccc2)C=C(Cl)CC1 (centres undefined),T/C,[17],96 % of control
same,T/C,[18],107 % of control
CC1CC(=O)CC(C)(C)N1 (centres undefined),T/C,[14],105 % of control
same,T/C,[16],98 % of control
same,T/C,[15],94 % of control
O=C(N/N=C/c1ccccc1O)c1ccccc1NC(=O)C1CC1,T/C,[1],104 % of control
same,T/C,[3],95 % of control
same,T/C,[9],101 % of control
O=[N+]([O-])c1ccccc1N=Nc1c(O)[nH]c2c(Cl)ccc(Cl)c12,T/C,[17],89 % of control
same,T/C,[18],93 % of control
O=C(N/N=C/c1ccccc1)c1ccccc1,T/C,"endpoint: mean survival time, dose: 100.0 mg/kg/injection, schedule: Q01DX009 (ip), vehicle: saline",102 % of control
same,T/C,"endpoint: mean survival time, dose: 100.0 mg/kg/injection, schedule: Q04DX003 (ip), vehicle: alcohol",98 % of control
same,T/C,[13],104 % of control
same,T/C,"endpoint: mean survival time, dose: 200.0 mg/kg/injection, schedule: Q04DX003 (ip), vehicle: alcohol",95 % of control
same,T/C,"endpoint: mean survival time, dose: 400.0 mg/kg/injection, schedule: Q01DX009 (ip), vehicle: saline",96 % of control
same,T/C,"endpoint: mean survival time, dose: 400.0 mg/kg/injection, schedule: Q04DX003 (ip), vehicle: alcohol",90 % of control
C=CC1(C)CCC2C(=CCC3C(C)(COC4OC(CO)C(O)C(O)C4O)C(O)CCC23C)C1 (centres undefined),T/C,[17],102 % of control
same,T/C,[18],98 % of control
CCc1ccccc1NC(=O)NCc1ccco1,T/C,[1],101 % of control
same,T/C,[3],92 % of control
O=C1c2sccc2-c2cccc3cccc1c23 (tested in a mixture with another compound),T/C,[2],96 % of control
same,T/C,[4],102 % of control
same,T/C,[5],106 % of control
[Cl][Hg][c]1ccccc1N=Nc1ccccc1,T/C,"endpoint: mean survival time, dose: 3.0 mg/kg/injection, schedule: Q01DX009 (ip), vehicle: saline with Tween-80",90 % of control
same,T/C,"endpoint: mean survival time, dose: 6.0 mg/kg/injection, schedule: Q01DX009 (ip), vehicle: saline with Tween-80",101 % of control
same,T/C,"endpoint: mean survival time, dose: 12.0 mg/kg/injection, schedule: Q01DX009 (ip), vehicle: saline with Tween-80",98 % of control
same,T/C,"endpoint: mean survival time, dose: 12.5 mg/kg/injection, schedule: Q01DX009 (ip), vehicle: saline with Tween-80",100 % of control
Clc1[nH]nc2ccccc12,T/C,"endpoint: mean survival time, dose: 25.0 mg/kg/injection, schedule: Q01DX009 (ip), vehicle: saline sonified",101 % of control
same,T/C,"endpoint: mean survival time, dose: 50.0 mg/kg/injection, schedule: Q01DX009 (ip), vehicle: saline sonified",93 % of control
same,T/C,"endpoint: mean survival time, dose: 100.0 mg/kg/injection, schedule: Q01DX001 (ip), vehicle: saline sonified",91 % of control
same,T/C,"endpoint: mean survival time, dose: 100.0 mg/kg/injection, schedule: Q01DX009 (ip), vehicle: saline sonified",97 % of control
